Laboratory results as given in ChEMBL document CHEMBL3621088, “Synthesis of novel acridine bis-sulfonamides with effective inhibitory activity against the carbonic anhydrase isoforms I, II, IX and XII” (Bioorg Med Chem, 2015).

Target: Carbonic anhydrase 9 (Homo sapiens, UniProt Q16790)
Description: Inhibition of recombinant human carbonic anhydrase 9 catalytic domain expressed in Escherichia coli incubated for 15 mins prior to testing by stopped flow CO2 hydrase assay

Row | Structure (SMILES) | Ki
1 | COc1ccc(S(=O)(=O)Nc2cccc(C3C4=C(CC(C)(C)CC4=O)N(c4ccc(S(N)(=O)=O)cc4)C4=C3C(=O)CC(C)(C)C4)c2)cc1 | 800 nM
2 | CC1(C)CC(=O)C2=C(C1)N(c1ccc(S(N)(=O)=O)cc1)C1=C(C(=O)CC(C)(C)C1)C2c1ccc(NS(=O)(=O)c2ccc(Br)cc2)cc1 | 1120 nM
3 | CC1(C)CC(=O)C2=C(C1)N(c1ccc(S(N)(=O)=O)cc1)C1=C(C(=O)CC(C)(C)C1)C2c1cccc(N)c1 | 920 nM
4 | CC1(C)CC(=O)C2=C(C1)N(c1ccc(S(N)(=O)=O)cc1)C1=C(C(=O)CC(C)(C)C1)C2c1cccc(NS(=O)(=O)c2ccc3ccccc3c2)c1 | 810 nM
5 | CC1(C)CC(=O)C2=C(C1)N(c1ccc(S(N)(=O)=O)cc1)C1=C(C(=O)CC(C)(C)C1)C2c1ccc(N)cc1 | 1000 nM
6 | Cc1ccc(S(=O)(=O)Nc2cccc(C3C4=C(CC(C)(C)CC4=O)N(c4ccc(S(N)(=O)=O)cc4)C4=C3C(=O)CC(C)(C)C4)c2)cc1 | 100 nM

Now from value to compound:

Row | Ki | Structure (SMILES)
7 | 110 nM | CC1(C)CC(=O)C2=C(C1)N(c1ccc(S(N)(=O)=O)cc1)C1=C(C(=O)CC(C)(C)C1)C2c1cccc(NS(=O)(=O)c2ccccc2)c1
8 | 440 nM | COc1ccc(S(=O)(=O)Nc2ccc(C3C4=C(CC(C)(C)CC4=O)N(c4ccc(S(N)(=O)=O)cc4)C4=C3C(=O)CC(C)(C)C4)cc2)cc1
9 | 280 nM | CC1(C)CC(=O)C2=C(C1)N(c1ccc(S(N)(=O)=O)cc1)C1=C(C(=O)CC(C)(C)C1)C2c1ccc(NS(=O)(=O)c2ccc3ccccc3c2)cc1
10 | 100 nM | Cc1ccc(S(=O)(=O)Nc2ccc(C3C4=C(CC(C)(C)CC4=O)N(c4ccc(S(N)(=O)=O)cc4)C4=C3C(=O)CC(C)(C)C4)cc2)cc1
11 | 580 nM | CC1(C)CC(=O)C2=C(C1)N(c1ccc(S(N)(=O)=O)cc1)C1=C(C(=O)CC(C)(C)C1)C2c1ccc(NS(=O)(=O)c2ccccc2)cc1
12 | 250 nM | CC1(C)CC(=O)C2=C(C1)N(c1ccc(S(N)(=O)=O)cc1)C1=C(C(=O)CC(C)(C)C1)C2c1cccc(NS(=O)(=O)c2ccc(Br)cc2)c1
